What was measured:
S. epidermidis = assay: 100-peptide microarray binding of S. epidermidis; conditions: S. epidermidis labeled with CTO and AF647, 106 CFU/mL
[1] = system: A/CA/7/2009 H1N1 pdm09 hemagglutination of turkey red blood cells; assay: Hemagglutination inhibition (HAI) assay; type: biochemical, influenza A/CA/07/2009 pdm09 H1N1; conditions: peptides tested 50 µM to 1.76 µM, 2 fold dilutions; 1 HAU virus; 0.5% turkey RBC; non-inhibitors: even at 50 µM
A/CA/07/2009 pdm09 H1N1 = assay: 100-peptide microarray binding of pdm09 H1N1; set-up: species or system influenza A/CA/07/2009 pdm09 H1N1; conditions: two color fluorescent labeling (AF555/AF647); six replicate spots per peptide; versus background in empty spots, p < 0.01
[2] = cited from earlier work

| Substance | binding of S. epidermidis on the peptide array (S. epidermidis) | inhibition of hemagglutination by pdm09 of red blood cells (peptides) [1] | binding of pdm09 H1N1 on the peptide array (A/CA/07/2009 pdm09 H1N1) | elimination half-life [2] [h] |
| --- | --- | --- | --- | --- |
| CSGAMHGPATTRPAIGRYPW [p52] | positives binders | – | – | – |
| CSGAVNYQEVFNKARMKKKR [p58] | – | did not prevent hemagglutination | bound | – |
| CSGEWRQQKMMPKSAPNKPQ [p94] | – | – | did not | – |
| CSGFRKHPWKHPRHKFHKPW [p104] | positives binders | – | – | – |
| CSGFWPRKHPFRWKHPRPKH [p107] | – | did not prevent hemagglutination | bound | – |
| CSGHNIYAQYGYPYDHMYEG [p125] | – | inhibited hemagglutination | – | – |
| CSGKSQEIGDPDDIWNQMKW [p149] | – | inhibited hemagglutination | – | – |
| CSGKVHRWKYHSRQNYTYRP [p151] | – | did not prevent hemagglutination | bound | – |
| CSGNETAPDNTYRYKQSAQK [p174] | – | did not prevent hemagglutination | bound | – |
| CSGQFSAKKYWEIKPMDYWK [p204] | – | did not prevent hemagglutination | bound | – |
| CSGSFNQEYFPYPMIDYLKK [p227] | – | inhibited hemagglutination | – | – |
| CSGYNWSRKKHKYYPRKIAY [p43] | – | did not prevent hemagglutination | bound | – |
| CSGYYDVHMGPMNDNHYFKK [p228] | – | did not prevent hemagglutination | bound | – |
| enfuvirtide | – | – | – | 3.8 |
